Measured values reported in patent publication US10857193B2, “Extract formulation of Opuntia ficus indica” (FINZELBERG GMBH & CO. KG, priority 2007, dated 2020).

System: blood glucose
Assay: Oral glucose tolerance test (oGTT), hypoglycaemic effect in an animal model
Format: in vivo, Wistar rats
Settings: oGTT in rats, result in words; FIG. 3 expressed as percent AUC vs control, n=5-6 per group
Description: A standard means of testing extracts or novel chemical compounds for effects on blood sugar levels is the oGTT (Verspohl, 2002). This involves administering the extract, a blind control or a known anti-diabetic to different groups of a rat population and administering an […] dose of glucose to a sub-group of each group. The extracts were administered 30 minutes before the glucose. Blood samples were taken sublingually 0, 15, 30, 60 and 120 minutes after glucose administration or at 0, 30, 60, 120 and 180 minutes for baseline blood sugar levels. The sampling schedule described served both to track the effect of the extracts on baseline blood sugar levels over a longer period and to track the effect on blood sugar levels following a glucose load.
All of the tested extracts, the blind control and the glibenclamide reference oral anti-diabetic contained propylene glycol as a solubilising agent and were administered orally via a feeding tube. […]
The samples were centrifuged at 8600 U/min for 10 minutes. The plasma supernatant was then analysed using an autoanalyser (Merck, Darmstadt). […]
Concentrations and kinetic data were analysed in Graphpad 4.0 (San Diego, USA) using one-way variance analysis (ANOVA) and the Newman-Keuls multiple comparison test. The area under the curve (AUC) was determined using the trapezoidal method without extrapolation beyond the final sampling point.

COc1ccc(Cl)cc1C(=O)NCCc1ccc(S(=O)(=O)NC(=O)NC2CCCCC2)cc1 [glibenclamide, Glibenclamide]
hypoglycaemic effect: hypoglycaemic effect
